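A five-concentration, 48-hour dose response in 96-well plates underlies each endpoint, interpolated linearly between surrounding concentrations. At the GI50, growth is halved.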 Calls of active or inactive are those of the source. Cut-off read from the data, not from the text of the source: active = GI50 up to about 1.1 µM and inactive = higher.
Legend:
Assay in all cases: DTP human tumour cell line panel, 48 h
MCF7 = system: MCF7
MDA-MB-435 = system: MDA-MB-435
EKVX = system: EKVX
HCT-116 = system: HCT-116
U-251 = system: U-251
UACC-62 = system: UACC-62
A498 = system: A498
SF-539 = system: SF-539
SK-MEL-28 = system: SK-MEL-28
NCI-H226 = system: NCI-H226
HT-29 = system: HT-29
NCI-H460 = system: NCI-H460
UACC-257 = system: UACC-257
OVCAR-8 = system: OVCAR-8
MDA-MB-231 = system: MDA-MB-231
SK-OV-3 = system: SK-OV-3
SNB-75 = system: SNB-75
NCI-H23 = system: NCI-H23
T47D = system: T47D
CCRF-CEM = system: CCRF-CEM

Measured: GI50

N#Cc1nc(C(CO)N(Cc2ccccc2)C(=O)O)oc1N (configuration not stated)
inactive: MCF7 > 100 µM | MDA-MB-435 > 100 µM | EKVX > 100 µM | HCT-116 > 100 µM | U-251 > 100 µM | UACC-62 > 100 µM | A498 > 100 µM | SF-539 > 100 µM | SK-MEL-28 > 100 µM | NCI-H226 > 100 µM | HT-29 > 100 µM | NCI-H460 > 100 µM | UACC-257 > 100 µM | OVCAR-8 > 100 µM | MDA-MB-231 > 100 µM | SK-OV-3 > 100 µM | SNB-75 > 100 µM | NCI-H23 > 100 µM | T47D > 100 µM

Nc1ccc2c(c1)S(=O)(=O)c1cc(O)ccc1O2
inactive: MCF7 > 100 µM | MDA-MB-435 > 100 µM | EKVX > 100 µM | CCRF-CEM > 100 µM | HCT-116 > 100 µM | U-251 > 100 µM | UACC-62 > 100 µM | A498 31.2 µM | SF-539 > 100 µM | SK-MEL-28 > 100 µM | NCI-H226 > 100 µM | HT-29 > 100 µM | NCI-H460 > 100 µM | UACC-257 > 100 µM | OVCAR-8 > 100 µM | MDA-MB-231 > 100 µM | SK-OV-3 > 100 µM | NCI-H23 > 100 µM | T47D > 100 µM

CN(C)CCNC(=O)c1cccc2c(NC(CCCNC(=N)N)C(=O)O)c3ccccc3[n+](C)c12 (configuration not stated)
inactive: MCF7 45.4 µM | MDA-MB-435 > 100 µM | EKVX > 100 µM | HCT-116 45.6 µM | U-251 > 100 µM | UACC-62 > 100 µM | A498 > 100 µM | SF-539 83.8 µM | SK-MEL-28 > 100 µM | NCI-H226 39.5 µM | HT-29 > 100 µM | NCI-H460 49.3 µM | UACC-257 > 100 µM | OVCAR-8 92 µM | MDA-MB-231 37.1 µM | SK-OV-3 > 100 µM | SNB-75 28.1 µM | NCI-H23 > 100 µM | T47D 80.9 µM

CCP(=O)(OC)C1=CCN(C(=O)OCC[Si](C)(C)C)CC1 (configuration not stated)
inactive: MCF7 > 100 µM | MDA-MB-435 > 100 µM | EKVX > 100 µM | CCRF-CEM > 100 µM | U-251 > 100 µM | UACC-62 > 100 µM | A498 > 100 µM | SF-539 72.9 µM | SK-MEL-28 > 100 µM | NCI-H226 > 100 µM | HT-29 > 100 µM | NCI-H460 > 100 µM | UACC-257 > 100 µM | OVCAR-8 > 100 µM | MDA-MB-231 > 100 µM | SK-OV-3 > 100 µM | SNB-75 > 100 µM | NCI-H23 > 100 µM | T47D > 100 µM

O=C(/C=C/c1ccc2c(c1)OCO2)Cc1nc2ncccc2[nH]c1=O
inactive: MCF7 > 100 µM | MDA-MB-435 > 100 µM | EKVX > 100 µM | CCRF-CEM > 100 µM | HCT-116 > 100 µM | U-251 31.1 µM | UACC-62 9.53 µM | A498 > 100 µM | SF-539 53.7 µM | SK-MEL-28 > 100 µM | HT-29 > 100 µM | NCI-H460 > 100 µM | UACC-257 > 100 µM | OVCAR-8 59.8 µM | MDA-MB-231 > 100 µM | SK-OV-3 98.9 µM | NCI-H23 > 100 µM | T47D 78.3 µM

[O-][N+]1(CC[N+]2([O-])CCCCC2)CCCCC1
inactive: MCF7 > 100 µM | MDA-MB-435 > 100 µM | EKVX > 100 µM | CCRF-CEM > 100 µM | HCT-116 > 100 µM | U-251 > 100 µM | UACC-62 > 100 µM | A498 > 100 µM | SF-539 > 100 µM | SK-MEL-28 > 100 µM | NCI-H226 > 100 µM | HT-29 > 100 µM | NCI-H460 > 100 µM | OVCAR-8 > 100 µM | MDA-MB-231 > 100 µM | SK-OV-3 > 100 µM | SNB-75 > 100 µM | NCI-H23 > 100 µM | T47D > 100 µM

Cc1ccc(/C=C2\CCC/C(=C\c3ccc(O)c(CN4CCCCC4)c3)C2=O)cc1
inactive: MCF7 4.44 µM | MDA-MB-435 3.41 µM | EKVX 12.6 µM | HCT-116 2.74 µM | U-251 5.27 µM | UACC-62 3.92 µM | A498 3.1 µM | SF-539 9.42 µM | SK-MEL-28 15.7 µM | NCI-H226 7.55 µM | HT-29 1.87 µM | NCI-H460 3.96 µM | UACC-257 5.09 µM | OVCAR-8 2.97 µM | MDA-MB-231 5.41 µM | SK-OV-3 13.2 µM | SNB-75 6.49 µM | NCI-H23 5.64 µM | T47D 13.4 µM
